Counter-ions that a name gives are not always drawn.
What was measured:
[1] = test system: Rat Middle Cerebral Artery Occlusion (MCAO) Animal Model; test: Neuroprotective effect in rat middle cerebral artery occlusion (MCAO) animal model; assay type: in vivo; conditions: for Infarct volume: 22 hours after reperfusion; for Percent of infraction decrease: vs control group
Protocol: Animal test was performed on male Sprague Dawley rats (KOATECH Co., Ltd., South Korea) weighing 280 to 340 g. Animals were given food and water ad libitum and adapted to the test environment for 1 week. The modified intraluminal filament technique as described by Zea Longa et al. (Stroke, 20:84-91, 1989) was used to induce MCAO. The rats were developed ischemic regions due to insufficient blood flow in striatum and temporal lobe which are the domain regions of the middle cerebral artery and depletion of oxygen and energy sources after the middle cerebral artery occlusion. In order to occlude the middle cerebral artery with the intraluminal suture method, 4-0 nylon suture was cut to 22 mm, and 2 mm of the terminal end was rounded by flame heating. In order to increase the effect of damage preventing and occlusion in the lumen, a probe was coated with silicon to 0.3 mm.
Rats were anaesthetized with isoflurane (3% for induction and 2% for surgical procedure) in a mixture of oxygen/nitrous oxide (30%/70%). The left common carotid artery (CCA) was exposed through a ventral midline incision in the neck. The external carotid artery (ECA), internal carotid artery (ICA), and CCA were carefully isolated and maintained in a Y-shape by use of silk suture. The upper external carotid artery was blocked by a thread, and a minute hole is bored 1 mm below the spot at which the external and internal carotid arteries bifurcate from the common carotid. The probe was inserted in the minute hole and fixed by a thread. The neck wound was closed and each animal was allowed to recover from anesthesia. 120 min after MCA occlusion, each animal was re-anesthetized, and the neck wound was re-opened to remove the thread. Along with the reperfusion, the compound of Example 74 was injected intravenously. 22 hours after the reperfusion, the animals were sacrificed by CO2 suffocation, decapitated, and 2 mm thick six coronal sections were obtained using rodent brain matrix. The coronal slices were incubated in phosphate-buffered saline (PBS) containing 2% 2,3,5-triphenyl tetrazolium chloride (TTC, Sigma) at 37° C. for 30 min, and then fixed in 4% phosphate-buffered formalin. After fixation these brain sections were scanned using a flat-bed scanner. The infarct area was determined by image J (NIH image version 1.59), and the total infarct volume was calculated by: Infarct volume (mm^3)=infarct […]×thickness of slice (2 mm) [Mathematical formula 3]
The statistical analysis of the decrease of infarct volume was performed by Mann Whitney test (*:p<0.05, **:p<0.01).

HT-29 Cell line = test: Cell growth inhibition of cancer cell lines (SRB assay), HT-29; assay type: cell-based
Protocol: (§1) The tests on cell growth inhibitory activity were performed with respect to A549 (US, ATCC), SK-OV-3 (Korea Research Institute of Chemical Technology; KRICT), HT-29 (US, ATCC), MCF-7 cell (US, ATCC), using Sulforhodamin-B <SRB> Assay (1989, US National Cancer Institute (NCI)) which was developed to measure the in vitro anti-cancer activity of the drug. […] The samples of the compounds of the Examples according to the present invention were used for the tests, and before the tests, the samples were dissolved in dimethylsulfoxide and diluted with the culture medium (RPMI 1640) to be used. The final concentration of the sample was varied in the range of 0.3˜100 μM. After the culture medium was removed from the 96 well plates, the diluted sample solution was added by 100 μl, and cultured in 37° C., 5% CO2 culture medium for 72 hours. The time zero (Tz) plates were collected at the time point of adding the sample. Upon completing the culture, the medium was removed from each well along with Tz plate, then cold 10% trichloroacetic acid (TCA) was added by 100 μl per well. The wells were left at 4° C. for 1 hour, so that the cells were fixed into the bottom of the plates. After the cells were fixed, the plates were rinsed with water five to six times to remove the remaining trichloroacetic acid solution, and moisture was completely dried at room temperature. The cells were dyed for 30 minutes by adding the dye solution in which 0.4% sulforhodamine-B was dissolved in 1% acetic acid solution, by 100 μl per dried wells. The above was rinsed again with 1% acetic acid solution five to six times to ensure that sulforhodamine-B which had not attached to the cells was removed. The plates were again dried at room temperature. 100 μl of 10 mM tris-buffer was then added to dissolve the dye, and the optical density (OD) at 520 nm was measured with the microplate reader. GI50 of the sample regarding cancer cell was calculated as explained below. Time zero (Tz), control value (C) and test value (T) were obtained, in which Tz corresponds to OD value of time at which the sample is applied and culture is started, C corresponds to OD value of the well which is cultured without treatment with the sample, and T corresponds to OD value of the well which is treated with the sample and then cultured. The degree of cell growth inhibition of the sample was measured using: If […] [Mathematical Formula 1]
(§2) Further, the ability of Examples 2, 42, 49, 52, 72, 74, 101 to increase growth inhibition effect of temozolomide and SN-38 at 2 μM was determined.

MCF-7 Cell line = test: Cell growth inhibition of cancer cell lines (SRB assay), MCF-7; assay type: cell-based
Protocol: as §1, §2

PARP-1 enzyme = PARP-1 enzyme (Cricetulus griseus (Chinese hamster) (Cricetulus barabensis griseus), UniProt Q9R152); test: Intracellular PARP inhibitory activity (NAD(P)H released by MMS-treated CHO-K1 cells); assay type: cell-based
Chain of PARP-1 enzyme (Q9R152 whole entry): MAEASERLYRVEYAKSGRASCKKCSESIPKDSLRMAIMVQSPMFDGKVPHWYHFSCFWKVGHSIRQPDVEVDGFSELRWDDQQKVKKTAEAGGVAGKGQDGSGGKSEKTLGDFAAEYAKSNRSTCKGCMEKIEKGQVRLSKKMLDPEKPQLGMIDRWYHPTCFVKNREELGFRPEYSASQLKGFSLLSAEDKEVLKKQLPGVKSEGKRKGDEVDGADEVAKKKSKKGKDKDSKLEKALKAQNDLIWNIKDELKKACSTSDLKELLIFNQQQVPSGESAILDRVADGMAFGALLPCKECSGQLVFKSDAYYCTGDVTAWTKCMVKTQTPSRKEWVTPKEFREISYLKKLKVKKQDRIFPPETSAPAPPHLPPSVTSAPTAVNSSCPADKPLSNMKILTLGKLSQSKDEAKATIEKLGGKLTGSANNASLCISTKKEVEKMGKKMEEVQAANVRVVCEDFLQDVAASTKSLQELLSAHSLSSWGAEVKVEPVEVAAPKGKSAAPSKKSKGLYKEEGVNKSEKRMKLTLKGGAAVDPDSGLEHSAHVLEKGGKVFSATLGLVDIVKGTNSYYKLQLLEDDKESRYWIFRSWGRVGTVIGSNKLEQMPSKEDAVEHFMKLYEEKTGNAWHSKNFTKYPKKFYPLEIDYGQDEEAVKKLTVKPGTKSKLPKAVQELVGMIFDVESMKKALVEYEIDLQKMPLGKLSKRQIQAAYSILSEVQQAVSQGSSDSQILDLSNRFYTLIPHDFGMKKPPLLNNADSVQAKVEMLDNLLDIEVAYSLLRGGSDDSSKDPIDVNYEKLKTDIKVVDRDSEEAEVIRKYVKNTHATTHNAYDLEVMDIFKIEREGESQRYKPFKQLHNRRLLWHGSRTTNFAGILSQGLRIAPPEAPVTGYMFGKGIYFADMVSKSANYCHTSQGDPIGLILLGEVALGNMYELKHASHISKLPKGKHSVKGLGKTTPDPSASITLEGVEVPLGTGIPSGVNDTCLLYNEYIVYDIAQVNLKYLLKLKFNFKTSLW

COc1cc(CN2CCOCC2)cc2[nH]c(=O)c3c(c12)NCCC3 [Example 74, 10-Methoxy-8-(morpholinomethyl)-1,2,3,4-tetrahydrobenzo[h][1,6]naphthyridine-5(6H)-one dihydrochloride]
Infarct volume ([1]; 10 mg/kg intravenously at reperfusion): 252.38 mm^3
Percent of infraction decrease ([1]; 10 mg/kg intravenously): 4%
Infarct volume ([1]; 20 mg/kg intravenously at reperfusion): 124.68 mm^3
Percent of infraction decrease ([1]; 20 mg/kg intravenously): 53%
Infarct volume ([1]; 30 mg/kg intravenously at reperfusion): 162.88 mm^3
Percent of infraction decrease ([1]; 30 mg/kg intravenously): 38%
SN-38 PF50 (HT-29 Cell line; 2 μM compound): 3.5
Temozolomide PF50 (HT-29 Cell line; 2 μM compound): >2.8
GI50 (HT-29 Cell line; Homo sapiens, 72 hours): 30 µM
SN-38 PF50 (MCF-7 Cell line; 2 μM compound): 3.0
Temozolomide PF50 (MCF-7 Cell line; 2 μM compound): 6.3
GI50 (MCF-7 Cell line; Homo sapiens, MCF7, 72 hours): 45 µM
IC50 (PARP-1 enzyme): 1.48 µM

Reference: patent US8815891B2, “Tricyclic derivative or pharmaceutically acceptable salts thereof, preparation method thereof, and pharmaceutical composition containing the same” (Je Il Pharmaceutical Co., Ltd., priority 2008, dated 2014)
